Patent US20240316012A1, “METHODS FOR TREATING LYMPHOMA” (Northwestern University, priority 2023, published 2024)

Tests used:
ITK-SYK^+PD-1− lymphoma = test: Torin-1 inhibitor treatment in vivo of lymphoma-bearing NSG mice; parameters: species or system mouse
From the text: FIGS. 2A-2F PD-1 represses mTOR and HIF1α in pre-malignant cells. […] White arrows indicate spleens. Color intensity represents the calculated MBq/ml uptake of ^18F-FDG. SUV, standardized uptake value ^18F-FDG, ^18F-fluordesoxyglucose. […] SUVmax denotes the maximum signal found in a single voxel across the entire tumor lesion. P=one-way ANOVA and two-sided Student's t-test. Shown are the mean±SEM and individual data points. […] CSI, chemical shift imaging. ROI, region of interest. […] P=two-sided Student's t-test. Shown are the mean±SD and individual data points. […] Spleen-derived single-cell suspensions were generated from ITK-SYK^CD4-creERT2 mice on d5 after TAM. Before fixation, anti-PD-L1 or control antibodies were added for four hours in vitro. […] On day 0, NSG mice received 1,000 ITK-SYK-expressing eGFP+ cells from an ITK-SYK^CD4-creERT2; Pdcd1^−/− mouse, FACS-sorted on d5 after TAM. Mice received 6 mg/kg Torin-1 or vehicle daily via intraperitoneal injection (n=6 mice per group) from day 3 p.i. on. P=two-sided log-rank test. FIG. 2A, Representative mice from two independent experiments. FIG. 2B, Pooled data from two independent experiments. FIG. 2C, Representative amplitudes from one experiment. FIG. 2D, Pooled data from two independent experiments. FIG. 2E, Representative data from two independent experiments with two biological replicates per group. […]

H3K27 acetylation = test: Flow cytometry for H3K27ac after in vitro culture with inhibitors; type: cell-based, mouse; conditions: exogenous acetate 100 μM; FIG. 11E
From the text: Data are normalized to viable cell number and z-scores per metabolite. […] P=two-sided Student's t-test. The data are presented as the mean±SEM and individual data points for each animal. Cross indicates death of the animal. […] P=two-sided Student's t-test. Shown are the mean±SD and individual data points. […] Data are presented as mean±SD and individual data points. […] P=paired two-sided Student's t-test. Data are presented as the mean±SD. […] Data was normalized as in (a). P=two-sided Student's t-test. The data are presented as the mean±SEM. […] Experiment as in (h) (n=3 mice genotype). Data was normalized as in (a). P=two-sided Student's t-test. Data are presented as the mean±SD. FIGS. 3-D, Representative data from two independent experiments with n=3 biological replicates per group. FIG. 3E, Representative data from two independent experiments with two biological replicates per group. FIG. 3F, Representative data from two independent experiments. FIG. 3G, Representative data from two independent experiments with three biological replicates per group. FIG. 3H, Representative data from one experiment with four biological replicates per group. FIG. 3I, Representative data from one experiment with three biological replicates per group FIGS. 4A-4H show ACLY is a critical effector molecule downstream of PD-1. […] ITK-SYK^+ cells were FACS-sorted from ITK-[…]2 mice on d5 after TAM and 12 h anti-PD-L1 or isotype control antibody treatment (i.p., 200 μg). P=paired two-sided Student's t-test. Data are presented as the mean±SD. […] Spleen-derived single-cell suspensions were FACS-sorted from ITK-[…]2 mice on d5 after TAM and cultured in vitro overnight with anti-PD-L1 or isotype control antibodies and the PI3K inhibitors (“iPI3K”) Wortmannin (20 nM), LY294002 (20 μM), or DMSO. […] Spleen-derived lymphocytes, FACS-sorted from ITK-[…]2 and ITK-[…]2; Pdcd1^-/- mice on d5 after TAM were incubated for three days in vitro. P=two-sided Student's t-test. Data are presented as the mean±SD. […] Protein lysates were generated after 48 h in vitro culture. RNP, ribonucleoprotein. […] P=two-sided Logrank-test. […] ITK-SYK^+ cells were FACS-sorted from ITK-[…]2 (“Pdcd1^+/+”) and ITK-[…]2; Pdcd1^-/- (“Pdcd1^-/-”) mice on d5 after TAM, fixed, and processed for anti-H3K27ac ChIP-seq analysis. ChIP-seq, chromatin immunoprecipitation sequencing; TSS, transcription start site. FIG. 4B, Representative data from three independent experiments with three biological replicates per group. FIG. 4C, Representative data from two independent experiments with two biological replicates. FIGS. 4D and 4E, Representative data from 3 independent experiments. FIGS. 4F and 4G, Data from one experiment with n=5 mice per group. […] (8752, CST), and assessed by flow cytometry. […]

[1] = tested on: PD-1 wild-type tumors (primary CTCL); test: Inhibitor treatment of human cells in vitro, division index, PD-1 wild-type CTCL cells; type: cell-based; conditions: 2-DG 1 mM, everolimus 0.1 μM, BMS-303141 10 μM; 6 days; FIG. 7E
Method: (§1) FIGS. 7A-7H show ACLY dependency and AP-1 activation in human PDCD1 defective T-NHL. […] CNA, copy number aberrations. FIG. 7B GSEA for the indicated gene sets based on RNA-seq data from the 21 CTCL patients shown in (a). NES, normalized enrichment score; FDR, false discovery rate. […] P=one-way ANOVA and two-sided Student's t-test. Shown are the mean±SD and individual data points. […] FACS-sorted malignant cells were stimulated with anti-CD3/anti-CD28 beads, and 2-NBDG uptake was determined at the indicated time points. P=two-sided Student's t-test. Shown are the mean±SEM and individual data points. […] CFSE, carboxyfluorescein succinimidyl ester. P=two-sided Student's t-test. The data are presented as the mean±SEM and individual data points. […] Legend as in (5a). […] FIG. 7H GSEA for the indicated gene sets with RNA-seq data from 21 CTCL PDCD1mut” or “PDCD1 wt, and three patients with hyperprogression. NES, normalized enrichment score; FDR, false discovery rate. FIGS. 7A and 7B, Data from a single experiment with 21 patients. FIGS. 7C and 7D, Data from one experiment with three patients per group and three healthy donors. FIG. 7E, Data from one experiment with three patients and three healthy donors. FIGS. 7F and 7G, Data from one experiment with three patients per group. FIG. 7H, Data from a single experiment.
(§2) Isolation of primary human CTCL cells. This study was approved by the Northwestern University Institutional Review Board. Patients provided informed consent for inclusion in the study. […] The tumor burden for each patient was determined using well-validated clinical markers, taking whichever value was higher between Sezary cell counts or the CD26 negative cell number by clinical flow cytometry. These were analyzed in conjunction with white blood cell and absolute lymphocyte counts.
(§3) Inhibitor treatment of human cells in vitro Malignant CTCL cells and CD4^+ T cells from healthy donors were isolated as previously described. […] After 6 days, the cells were analyzed by flow cytometry, and the division index was determined using the FlowJo proliferation tool (v10.6, FlowJo LLC).

[2] = tested on: PDCD1-mutant lymphoma cells (primary CTCL); test: Inhibitor treatment of human cells in vitro, division index, PDCD1-mutant CTCL cells; type: cell-based; conditions: 2-DG 1 mM, everolimus 0.1 μM, BMS-303141 10 μM; anti-CD3/anti-CD28 beads, 6 days; FIG. 7E
Method: as §1, §2, §3

SMILES: CCC(=O)N1CCN(c2ccc(-n3c(=O)ccc4cnc5ccc(-c6cnc7ccccc7c6)cc5c43)cc2C(F)(F)F)CC1 [Torin-1]
- survival of ITK-SYK+PD-1− lymphoma-bearing mice (ITK-SYK^+PD-1− lymphoma; NSG mice, Torin-1 intraperitoneal from day 3, 6 mg/kg daily or 10 mg per kg per day 5 days a week, vs vehicle, p=0.0057): significantly prolonged survival
- mTOR activity within the tumor cells in vivo (ITK-SYK^+PD-1− lymphoma; lymphoma-bearing mice, FIG. 10G): blocks mTOR activity

SMILES: CC(=O)O [acetate]
- restoration of decreased H3K27ac signals in ACLY inhibitor-treated lymphoma cells (H3K27 acetylation): not able to restore

SMILES: CO[C@H]1C[C@@H]2CC[C@@H](C)[C@@](O)(O2)C(=O)C(=O)N2CCCC[C@H]2C(=O)O[C@H]([C@H](C)C[C@@H]2CC[C@@H](OCCO)[C@H](OC)C2)CC(=O)[C@H](C)/C=C(\C)[C@@H](O)[C@@H](OC)C(=O)[C@H](C)C[C@H](C)/C=C/C=C/C=C/1C [everolimus]
- response of stage-matched PD-1 wild-type tumors (relative division index) [1]: resistant
- viability, division and proliferation of PDCD1-mutant cancer cells (relative division index) [2]: reduced the viability and division
